Laboratory results: ChEMBL document CHEMBL5113409, “Design and synthesis of proteolysis targeting chimeras (PROTACs) as an EGFR degrader based on CO-1686” (Eur J Med Chem, 2022)
Active and inactive are the calls of the source. The rule behind the calls is not given here.

Experiments:
A549 = assay: Anti-proliferative activity against human A549 cells assessed as reduction in cell proliferation incubated for 72 hrs by MTT assay; type: functional, cell-based; conditions: A549, 72 h
NCI-H1975 = assay: Anti-proliferative activity against human NCI-H1975 cells assessed as reduction in cell proliferation incubated for 72 hrs by MTT assay; type: functional, cell-based; conditions: NCI-H1975, 72 h
PC-9 = assay: Anti-proliferative activity against human PC-9 cells assessed as reduction in cell proliferation incubated for 72 hrs by MTT assay; type: functional, cell-based; conditions: PC-9, 72 h
[1] = tested on: Protein cereblon/Epidermal growth factor receptor (Homo sapiens), P00533+Q96SW2 [L858R,T790M]; assay: Protac activity at CRBN/EGFR L858R/T790M mutant in human NCI-H1975 cells assessed as L858R/T790M mutant degradation at 3 uM incubated for 48 hrs by Western blot analysis; type: cell-based
Homo sapiens = species on record: Homo sapiens; assay: Selectivity index, ratio of IC50 for wild type EGFR (unknown origin) to IC50 for Protein cereblon/Epidermal growth factor receptor L858R/T790M mutant
[2] = biological target: Epidermal growth factor receptor (Homo sapiens, UniProt P00533); assay: Inhibition of wild type EGFR (unknown origin) incubated for 10 mins by HTRF KinEASE-TK assay
[3] = biological target: Epidermal growth factor receptor (Homo sapiens, UniProt P00533, L858R/T790M); assay: Inhibition of EGFR L858R/T790M mutant (unknown origin) incubated for 35 mins by HTRF KinEASE-TK assay

| SMILES | IC50 (A549) [µM] | IC50 (NCI-H1975) [µM] | IC50 (PC-9) [µM] | Activity [1] | Ratio IC50 (Homo sapiens) | IC50 [2] [µM] | IC50 [3] [µM] |
| --- | --- | --- | --- | --- | --- | --- | --- |
| C=CC(=O)Nc1cccc(Nc2nc(Nc3ccc(N4CCN(CC(=O)NCCCCCNC(=O)CNc5cccc6c5C(=O)N(C5CCC(=O)NC5=O)C6=O)CC4)cc3OC)ncc2C(F)(F)F)c1 (configuration not stated) | > 100 | 12.8 | 14.4 | – | – | – | – |
| C=CC(=O)Nc1cccc(Nc2nc(Nc3ccc(N4CCN(C(=O)CCCC(=O)Nc5cccc6c5C(=O)N(C5CCC(=O)NC5=O)C6=O)CC4)cc3OC)ncc2C(F)(F)F)c1 (configuration not stated) | > 100 | 0.95 | 1.35 | Active | 98 | 3.23 | 0.033 |
| C=CC(=O)Nc1cccc(Nc2nc(Nc3ccc(N4CCN(C(=O)CCCCNc5cccc6c5C(=O)N(C5CCC(=O)NC5=O)C6=O)CC4)cc3OC)ncc2C(F)(F)F)c1 (configuration not stated) | > 100 | 1.09 | 6.74 | Active | 5 | 0.614 | 0.121 |
| C=CC(=O)Nc1cccc(Nc2nc(Nc3ccc(N4CCN(CC(=O)NCCNC(=O)CNc5cccc6c5C(=O)N(C5CCC(=O)NC5=O)C6=O)CC4)cc3OC)ncc2C(F)(F)F)c1 (configuration not stated) | > 100 | 8.89 | 13.4 | – | – | – | – |
| C=CC(=O)Nc1cccc(Nc2nc(Nc3ccc(N4CCN(C(=O)CCCCC(=O)Nc5cccc6c5C(=O)N(C5CCC(=O)NC5=O)C6=O)CC4)cc3OC)ncc2C(F)(F)F)c1 (configuration not stated) | > 100 | 1.56 | 4.62 | – | – | – | – |
| C=CC(=O)Nc1cccc(Nc2nc(Nc3ccc(N4CCN(C(=O)CCCCCCCCC(=O)Nc5cccc6c5C(=O)N(C5CCC(=O)NC5=O)C6=O)CC4)cc3OC)ncc2C(F)(F)F)c1 (configuration not stated) | > 100 | 17 | 26.7 | – | – | – | – |
| C=CC(=O)Nc1cccc(Nc2nc(Nc3ccc(N4CCN(C(=O)CCCCCCCCCCCC(=O)Nc5cccc6c5C(=O)N(C5CCC(=O)NC5=O)C6=O)CC4)cc3OC)ncc2C(F)(F)F)c1 (configuration not stated) | > 100 | 17.1 | 18.1 | – | – | – | – |
| C=CC(=O)Nc1cccc(Nc2nc(Nc3ccc(N4CCN(C(=O)CCCCCCC(=O)Nc5cccc6c5C(=O)N(C5CCC(=O)NC5=O)C6=O)CC4)cc3OC)ncc2C(F)(F)F)c1 (configuration not stated) | > 100 | 5.02 | 2.55 | – | – | – | – |
| C=CC(=O)Nc1cccc(Nc2nc(Nc3ccc(N4CCN(CC(=O)NCCCCNC(=O)CNc5cccc6c5C(=O)N(C5CCC(=O)NC5=O)C6=O)CC4)cc3OC)ncc2C(F)(F)F)c1 (configuration not stated) | > 100 | 11.7 | 13.2 | – | – | – | – |
| C=CC(=O)Nc1cccc(Nc2nc(Nc3ccc(N4CCN(CC(=O)NCCCNc5cccc6c5C(=O)N(C5CCC(=O)NC5=O)C6=O)CC4)cc3OC)ncc2C(F)(F)F)c1 (configuration not stated) | > 100 | 5.76 | 2.58 | – | – | – | – |
| C=CC(=O)Nc1cccc(Nc2nc(Nc3ccc(N4CCN(CC(=O)NCCNc5ccc6c(c5)C(=O)N(C5CCC(=O)NC5=O)C6=O)CC4)cc3OC)ncc2C(F)(F)F)c1 (configuration not stated) | > 100 | 4.72 | 3.51 | – | – | – | – |
| C=CC(=O)Nc1cccc(Nc2nc(Nc3ccc(N4CCN(C(=O)CCCCCCCCCCC(=O)Nc5cccc6c5C(=O)N(C5CCC(=O)NC5=O)C6=O)CC4)cc3OC)ncc2C(F)(F)F)c1 (configuration not stated) | > 100 | 8.55 | 8.77 | – | – | – | – |
| C=CC(=O)Nc1cccc(Nc2nc(Nc3ccc(N4CCN(C(=O)CCCCCCCC(=O)Nc5cccc6c5C(=O)N(C5CCC(=O)NC5=O)C6=O)CC4)cc3OC)ncc2C(F)(F)F)c1 (configuration not stated) | > 100 | 1.53 | 5.31 | – | – | – | – |
| C=CC(=O)Nc1cccc(Nc2nc(Nc3ccc(N4CCN(C(=O)CCCCCC(=O)Nc5cccc6c5C(=O)N(C5CCC(=O)NC5=O)C6=O)CC4)cc3OC)ncc2C(F)(F)F)c1 (configuration not stated) | 29.8 | 0.59 | 0.9 | Active | 32 | 0.648 | 0.0203 |
| C=CC(=O)Nc1cccc(Nc2nc(Nc3ccc(N4CCN(CC(=O)NCCCCCNc5cccc6c5C(=O)N(C5CCC(=O)NC5=O)C6=O)CC4)cc3OC)ncc2C(F)(F)F)c1 (configuration not stated) | > 100 | 0.52 | 3.43 | – | – | – | – |
| C=CC(=O)Nc1cccc(Nc2nc(Nc3ccc(N4CCN(C(C)=O)CC4)cc3OC)ncc2C(F)(F)F)c1 [ROCILETINIB] | 7.57 | 0.13 | 0.27 | – | – | – | – |
| C=CC(=O)Nc1cccc(Nc2nc(Nc3ccc(N4CCN(CC(=O)NCCNc5cccc6c5CN(C5CCC(=O)NC5=O)C6=O)CC4)cc3OC)ncc2C(F)(F)F)c1 (configuration not stated) | 33.3 | 8.36 | 4.86 | – | 2.5 | 2.4 | 0.965 |
| C=CC(=O)Nc1cccc(Nc2nc(Nc3ccc(N4CCN(C(=O)CCCCCCCCCCCCC(=O)Nc5cccc6c5C(=O)N(C5CCC(=O)NC5=O)C6=O)CC4)cc3OC)ncc2C(F)(F)F)c1 (configuration not stated) | > 100 | 62 | 46.5 | – | – | – | – |
| C=CC(=O)Nc1cccc(Nc2nc(Nc3ccc(N4CCN(CC(=O)NCCCNC(=O)CNc5cccc6c5C(=O)N(C5CCC(=O)NC5=O)C6=O)CC4)cc3OC)ncc2C(F)(F)F)c1 (configuration not stated) | > 100 | 7.35 | 7.67 | – | – | – | – |
| C=CC(=O)Nc1cccc(Nc2nc(Nc3ccc(N4CCN(CCOCCNc5cccc6c5C(=O)N(C5CCC(=O)NC5=O)C6=O)CC4)cc3OC)ncc2C(F)(F)F)c1 (configuration not stated) | 36.9 | 0.22 | 0.5 | Active | 15 | 0.364 | 0.0241 |
| C=CC(=O)Nc1cccc(Nc2nc(Nc3ccc(N4CCN(CC(=O)NCCCCCCNC(=O)CNc5cccc6c5C(=O)N(C5CCC(=O)NC5=O)C6=O)CC4)cc3OC)ncc2C(F)(F)F)c1 (configuration not stated) | > 100 | 17 | 6.61 | – | – | – | – |
| C=CC(=O)Nc1cccc(Nc2nc(Nc3ccc(N4CCN(C(=O)CCCCCCCCCC(=O)Nc5cccc6c5C(=O)N(C5CCC(=O)NC5=O)C6=O)CC4)cc3OC)ncc2C(F)(F)F)c1 (configuration not stated) | > 100 | 2.81 | 3.69 | – | – | – | – |
| C=CC(=O)Nc1cccc(Nc2nc(Nc3ccc(N4CCN(CC(=O)NCCOc5cccc6c5C(=O)N(C5CCC(=O)NC5=O)C6=O)CC4)cc3OC)ncc2C(F)(F)F)c1 (configuration not stated) | > 100 | 9.31 | 7.34 | – | – | – | – |
| C=CC(=O)Nc1cccc(Nc2nc(Nc3ccc(N4CCN(CC(=O)NCCCCCCNc5cccc6c5C(=O)N(C5CCC(=O)NC5=O)C6=O)CC4)cc3OC)ncc2C(F)(F)F)c1 (configuration not stated) | > 100 | 4.14 | 3.28 | – | – | – | – |
| C=CC(=O)Nc1cccc(Nc2nc(Nc3ccc(N4CCN(CC(=O)NCCNc5cccc6c5C(=O)N(C5CCC(=O)N(C)C5=O)C6=O)CC4)cc3OC)ncc2C(F)(F)F)c1 (configuration not stated) | > 100 | 4.68 | 1.89 | – | 11 | 1.4 | 0.134 |
